This experiment addresses human APJ receptor (Homo sapiens (Human), UniProt P35414). The experiment is described as follows: [35S]GTPγS binding assay on membranes from CHO cells stably expressing human APJ receptor. Format: biochemical. The following applies: read-out: Activity hAPJ SPA EC50 IP. The essentials: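 Agonist-driven [35S]GTPγS (0.2 nM) binding was measured over 90 min at room temperature on human APJ-expressing CHO membranes with bead capture, in buffer containing 3 μM GDP, 200 mM NaCl and 5 mM MgCl2 (pH 7.5). Excess unlabelled GTPγS (100 μM) gave nonspecific signal; EC50 from non-linear fits.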
A general note: GTPγS resists hydrolysis and so accumulates on activated G proteins.

Sequence of human APJ receptor (P35414 whole entry): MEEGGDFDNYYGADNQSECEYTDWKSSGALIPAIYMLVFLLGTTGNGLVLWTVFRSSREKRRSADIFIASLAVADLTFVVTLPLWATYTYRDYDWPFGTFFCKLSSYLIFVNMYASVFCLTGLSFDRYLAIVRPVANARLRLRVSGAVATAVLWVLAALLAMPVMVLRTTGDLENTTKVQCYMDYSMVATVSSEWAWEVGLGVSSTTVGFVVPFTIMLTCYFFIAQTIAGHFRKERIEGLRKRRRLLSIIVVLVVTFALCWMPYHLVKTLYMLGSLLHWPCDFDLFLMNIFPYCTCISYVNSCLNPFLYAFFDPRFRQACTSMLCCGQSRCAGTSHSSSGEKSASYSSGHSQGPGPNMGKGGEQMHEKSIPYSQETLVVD

As usually defined, the EC50 is the midpoint of the concentration-response curve. With “(1R,2S)-N-(4-([1,1′-bi(cyclopropyl)]-1-yl)-5-((2S)-1,4-dioxan-2-yl)-4H-1,2,4-triazol-3-yl)-1-(5-chloro-2-pyrimidinyl)-1-methoxy-2-propanesulfonamide or (1R,2S)-N-(4-([1,1′-bi(cyclopropyl)]-1-yl)-5-((2R)-1,4-dioxan-2-yl)-4H-1,2,4-triazol-3-yl)-1-(5-chloro-2-pyrimidinyl)-1-methoxy-2-propanesulfonamide [Example 326.0]”, the EC50 was 1.7 µM.

On to “(1R,2S)-N-(5-((R)-1,4-dioxan-2-yl)-4-(1-(pyridin-3-yl)cyclopropyl)-4H-1,2,4-triazol-3-yl)-1-(5-chloropyrimidin-2-yl)-1-methoxypropane-2-sulfonamide or (1R,2S)-N-(5-((S)-1,4-dioxan-2-yl)-4-(1-(pyridin-3-yl)cyclopropyl)-4H-1,2,4-triazol-3-yl)-1-(5-chloropyrimidin-2-yl)-1-methoxypropane-2-sulfonamide [Example 295.0]”, for which the EC50 amounted to 0.016 µM.

As for “(1R,2S)-N-(5-((R)-1,4-dioxan-2-yl)-4-(1-(pyridin-3-yl)cyclopropyl)-4H-1,2,4-triazol-3-yl)-1-(5-chloropyrimidin-2-yl)-1-methoxypropane-2-sulfonamide or (1R,2S)-N-(5-((S)-1,4-dioxan-2-yl)-4-(1-(pyridin-3-yl)cyclopropyl)-4H-1,2,4-triazol-3-yl)-1-(5-chloropyrimidin-2-yl)-1-methoxypropane-2-sulfonamide [Example 296.0]”, the EC50 was 0.17 µM.

With “(1R,2S)-N-(5-((R)-2,3-dihydrobenzofuran-2-yl)-4-(4,6-dimethoxypyrimidin-5-yl)-4H-1,2,4-triazol-3-yl)-1-methoxy-1-(5-methylpyrimidin-2-yl)propane-2-sulfonamide or (1R,2S)-N-(5-((S)-2,3-dihydrobenzofuran-2-yl)-4-(4,6-dimethoxypyrimidin-5-yl)-4H-1,2,4-triazol-3-yl)-1-methoxy-1-(5-methylpyrimidin-2-yl)propane-2-sulfonamide [Example 233.0]”, the EC50 amounted to 1.27 µM.

As to “(1R,2S)-N-(5-((R)-2,3-dihydrobenzofuran-3-yl)-4-(2,6-dimethoxyphenyl)-4H-1,2,4-triazol-3-yl)-1-methoxy-1-(5-methylpyrimidin-2-yl)propane-2-sulfonamide or (1R,2S)-N-(5-((S)-2,3-dihydrobenzofuran-3-yl)-4-(2,6-dimethoxyphenyl)-4H-1,2,4-triazol-3-yl)-1-methoxy-1-(5-methylpyrimidin-2-yl)propane-2-sulfonamide [Example 238.0]”, the EC50 stood at 0.81 µM.

Take “(1R,2S)-N-(5-((R)-2,3-dihydrobenzofuran-3-yl)-4-(2,6-dimethoxyphenyl)-4H-1,2,4-triazol-3-yl)-1-methoxy-1-(5-methylpyrimidin-2-yl)propane-2-sulfonamide or (1R,2S)-N-(5-((S)-2,3-dihydrobenzofuran-3-yl)-4-(2,6-dimethoxyphenyl)-4H-1,2,4-triazol-3-yl)-1-methoxy-1-(5-methylpyrimidin-2-yl)propane-2-sulfonamide [Example 239.0]”: the EC50 was found to be 0.033 µM.

For “(1R,2S)-N-(5-((S)-1,4-dioxan-2-yl)-4-(1-(methoxymethyl)cyclopropyl)-4H-1,2,4-triazol-3-yl)-1-(5-chloropyrimidin-2-yl)-1-methoxypropane-2-sulfonamide or (1R,2S)-N-(5-((R)-1,4-dioxan-2-yl)-4-(1-(methoxymethyl)cyclopropyl)-4H-1,2,4-triazol-3-yl)-1-(5-chloropyrimidin-2-yl)-1-methoxypropane-2-sulfonamide [Example 341.0]”, the EC50 is 1.21 µM.

With “(1S,2S)-1-(5-chloro-2-pyrimidinyl)-N-(4-(1,3-dimethoxy-2-propanyl)-5-((2R,5R)-5-methyltetrahydro-2-furanyl)-4H-1,2,4-triazol-3-yl)-1-(2-propanyloxy)-2-propanesulfonamide or (1S,2S)-1-(5-chloro-2-pyrimidinyl)-N-(4-(1,3-dimethoxy-2-propanyl)-5-((2S,5S)-5-methyltetrahydro-2-furanyl)-4H-1,2,4-triazol-3-yl)-1-(2-propanyloxy)-2-propanesulfonamide [Example 354.0]”, the EC50 is 0.092 µM.

On to “(1S,2S)-1-(5-chloro-2-pyrimidinyl)-N-(4-(1,3-dimethoxy-2-propanyl)-5-((2R,5R)-5-methyltetrahydro-2-furanyl)-4H-1,2,4-triazol-3-yl)-1-(2-propanyloxy)-2-propanesulfonamide or (1S,2S)-1-(5-chloro-2-pyrimidinyl)-N-(4-(1,3-dimethoxy-2-propanyl)-5-((2S,5S)-5-methyltetrahydro-2-furanyl)-4H-1,2,4-triazol-3-yl)-1-(2-propanyloxy)-2-propanesulfonamide [Example 355.0]”, for which the EC50 was 0.0012 µM.

For “(1S,2S)-1-(5-chloro-2-pyrimidinyl)-N-(4-cyclopropyl-5-((2S,5S)-5-methyltetrahydro-2-furanyl)-4H-1,2,4-triazol-3-yl)-1-(2-propanyloxy)-2-propanesulfonamide or (1S,2S)-1-(5-chloro-2-pyrimidinyl)-N-(4-cyclopropyl-5-((2R,5R)-5-methyltetrahydro-2-furanyl)-4H-1,2,4-triazol-3-yl)-1-(2-propanyloxy)-2-propanesulfonamide [Example 352.0]”, the EC50 came out at 1.49 µM.

For “(1S,2S)-1-(5-chloro-2-pyrimidinyl)-N-(4-cyclopropyl-5-((2S,5S)-5-methyltetrahydro-2-furanyl)-4H-1,2,4-triazol-3-yl)-1-(2-propanyloxy)-2-propanesulfonamide or (1S,2S)-1-(5-chloro-2-pyrimidinyl)-N-(4-cyclopropyl-5-((2R,5R)-5-methyltetrahydro-2-furanyl)-4H-1,2,4-triazol-3-yl)-1-(2-propanyloxy)-2-propanesulfonamide [Example 353.0]”, the EC50 came to 0.1 µM.

Take “(1S,2S)-1-(5-chloropyrimidin-2-yl)-1-isopropoxy-N-(4-(1-(methoxymethyl)cyclopropyl)-5-((R)-tetrahydrofuran-3-yl)-4H-1,2,4-triazol-3-yl)propane-2-sulfonamide or (1S,2S)-1-(5-chloropyrimidin-2-yl)-1-isopropoxy-N-(4-(1-(methoxymethyl)cyclopropyl)-5-((S)-tetrahydrofuran-3-yl)-4H-1,2,4-triazol-3-yl)propane-2-sulfonamide [Example 319.0]”: the EC50 was found to be 0.13 µM.

With “(1S,2S)-1-(5-chloropyrimidin-2-yl)-1-isopropoxy-N-(4-(1-(methoxymethyl)cyclopropyl)-5-((R)-tetrahydrofuran-3-yl)-4H-1,2,4-triazol-3-yl)propane-2-sulfonamide or (1S,2S)-1-(5-chloropyrimidin-2-yl)-1-isopropoxy-N-(4-(1-(methoxymethyl)cyclopropyl)-5-((S)-tetrahydrofuran-3-yl)-4H-1,2,4-triazol-3-yl)propane-2-sulfonamide [Example 320.0]”, the EC50 is 0.045 µM.

For the substance “(1S,2S)-1-isopropoxy-1-(5-methylpyrazin-2-yl)-N-(4-(tetrahydro-2H-pyran-4-yl)-5-((R)-tetrahydrofuran-2-yl)-4H-1,2,4-triazol-3-yl)propane-2-sulfonamide or (1S,2S)-1-isopropoxy-1-(5-methylpyrazin-2-yl)-N-(4-(tetrahydro-2H-pyran-4-yl)-5-((S)-tetrahydrofuran-2-yl)-4H-1,2,4-triazol-3-yl)propane-2-sulfonamide [Example 260.0]”, the EC50 is more than 4.2 µM.

For “(1S,2S)-1-isopropoxy-1-(5-methylpyrazin-2-yl)-N-(4-(tetrahydro-2H-pyran-4-yl)-5-((R)-tetrahydrofuran-2-yl)-4H-1,2,4-triazol-3-yl)propane-2-sulfonamide or (1S,2S)-1-isopropoxy-1-(5-methylpyrazin-2-yl)-N-(4-(tetrahydro-2H-pyran-4-yl)-5-((S)-tetrahydrofuran-2-yl)-4H-1,2,4-triazol-3-yl)propane-2-sulfonamide [Example 261.0]”, the EC50 was 0.15 µM.

Consider “(1S,2S)-1-isopropoxy-1-(5-methylpyrazin-2-yl)-N-(5-((2S,5S)-5-methyltetrahydrofuran-2-yl)-4-(tetrahydro-2H-pyran-4-yl)-4H-1,2,4-triazol-3-yl)propane-2-sulfonamide or (1S,2S)-1-isopropoxy-1-(5-methylpyrazin-2-yl)-N-(5-((2R,5R)-5-methyltetrahydrofuran-2-yl)-4-(tetrahydro-2H-pyran-4-yl)-4H-1,2,4-triazol-3-yl)propane-2-sulfonamide [Example 262.0]”, for which the EC50 is more than 4.2 µM.

As to “(1S,2S)-1-isopropoxy-1-(5-methylpyrazin-2-yl)-N-(5-((2S,5S)-5-methyltetrahydrofuran-2-yl)-4-(tetrahydro-2H-pyran-4-yl)-4H-1,2,4-triazol-3-yl)propane-2-sulfonamide or (1S,2S)-1-isopropoxy-1-(5-methylpyrazin-2-yl)-N-(5-((2R,5R)-5-methyltetrahydrofuran-2-yl)-4-(tetrahydro-2H-pyran-4-yl)-4H-1,2,4-triazol-3-yl)propane-2-sulfonamide [Example 263.0]”, the EC50 amounted to 0.46 µM.

With “(1S,2S)-N-(4-(1,3-dimethoxy-2-propanyl)-5-((2R,5R)-5-methyltetrahydro-2-furanyl)-4H-1,2,4-triazol-3-yl)-1-(5-fluoro-2-pyrimidinyl)-1-(2-propanyloxy)-2-propanesulfonamide or (1S,2S)-N-(4-(1,3-dimethoxy-2-propanyl)-5-((2S,5S)-5-methyltetrahydro-2-furanyl)-4H-1,2,4-triazol-3-yl)-1-(5-fluoro-2-pyrimidinyl)-1-(2-propanyloxy)-2-propanesulfonamide [Example 360.0]”, the EC50 was determined as 0.31 µM.

The record behind these values is US10150760B2, “Compounds for use in preparing heterocyclic triazole agonists of the APJ receptor” (AMGEN INC., priority 2016, dated 2018).
